Results: ChEMBL document CHEMBL4020792, “Sialidase inhibitory activity of diarylnonanoid and neolignan compounds extracted from the seeds of Myristica fragrans” (Bioorg Med Chem Lett, 2017)
pIC50, pKi: −log10 of the molar value.

How the values were obtained:
[1] = (§1) Inhibition of Streptococcus pneumoniae sialidase NanB using 4-methylumbelliferyl-alpha-D-N-acetylneuraminic acid as substrate after 60 mins by FRET assay; settings: for pIC50: read-out: IC50
Streptococcus pneumoniae [2] = experiment: as §1
[3] = molecular target: Sialidase A (Streptococcus pneumoniae) (UniProt P62575); experiment: (§2) Inhibition of Streptococcus pneumoniae sialidase NanA using 4-methylumbelliferyl-alpha-D-N-acetylneuraminic acid as substrate after 60 mins by FRET assay
Sialidase A [4] = molecular target: T1, Sialidase A (Streptococcus pneumoniae, UniProt P62575); experiment: as §2
Sialidase A [5] = molecular target: T1, Sialidase A; experiment: Noncompetitive inhibition of Streptococcus pneumoniae sialidase NanA using 4-methylumbelliferyl-alpha-D-N-acetylneuraminic acid as substrate after 60 mins by Lineweaver-Burk plot/Dixon plot analysis
[6] = (§3) Inhibition of Streptococcus pneumoniae sialidase NanC using 4-methylumbelliferyl-alpha-D-N-acetylneuraminic acid as substrate after 60 mins by FRET assay; settings: for pIC50: read-out: IC50
Streptococcus pneumoniae [7] = experiment: as §3
[8] = Noncompetitive inhibition of Streptococcus pneumoniae sialidase NanB using 4-methylumbelliferyl-alpha-D-N-acetylneuraminic acid as substrate after 60 mins by Lineweaver-Burk plot/Dixon plot analysis
[9] = Noncompetitive inhibition of Streptococcus pneumoniae sialidase NanC using 4-methylumbelliferyl-alpha-D-N-acetylneuraminic acid as substrate after 60 mins by Lineweaver-Burk plot/Dixon plot analysis
Sialidase A [10] = molecular target: T1, Sialidase A; experiment: Competitive inhibition of Streptococcus pneumoniae sialidase NanA using 4-methylumbelliferyl-alpha-D-N-acetylneuraminic acid as substrate after 60 mins by Lineweaver-Burk plot/Dixon plot analysis

Sequence of Sialidase A (Streptococcus pneumoniae) (P62575 whole entry): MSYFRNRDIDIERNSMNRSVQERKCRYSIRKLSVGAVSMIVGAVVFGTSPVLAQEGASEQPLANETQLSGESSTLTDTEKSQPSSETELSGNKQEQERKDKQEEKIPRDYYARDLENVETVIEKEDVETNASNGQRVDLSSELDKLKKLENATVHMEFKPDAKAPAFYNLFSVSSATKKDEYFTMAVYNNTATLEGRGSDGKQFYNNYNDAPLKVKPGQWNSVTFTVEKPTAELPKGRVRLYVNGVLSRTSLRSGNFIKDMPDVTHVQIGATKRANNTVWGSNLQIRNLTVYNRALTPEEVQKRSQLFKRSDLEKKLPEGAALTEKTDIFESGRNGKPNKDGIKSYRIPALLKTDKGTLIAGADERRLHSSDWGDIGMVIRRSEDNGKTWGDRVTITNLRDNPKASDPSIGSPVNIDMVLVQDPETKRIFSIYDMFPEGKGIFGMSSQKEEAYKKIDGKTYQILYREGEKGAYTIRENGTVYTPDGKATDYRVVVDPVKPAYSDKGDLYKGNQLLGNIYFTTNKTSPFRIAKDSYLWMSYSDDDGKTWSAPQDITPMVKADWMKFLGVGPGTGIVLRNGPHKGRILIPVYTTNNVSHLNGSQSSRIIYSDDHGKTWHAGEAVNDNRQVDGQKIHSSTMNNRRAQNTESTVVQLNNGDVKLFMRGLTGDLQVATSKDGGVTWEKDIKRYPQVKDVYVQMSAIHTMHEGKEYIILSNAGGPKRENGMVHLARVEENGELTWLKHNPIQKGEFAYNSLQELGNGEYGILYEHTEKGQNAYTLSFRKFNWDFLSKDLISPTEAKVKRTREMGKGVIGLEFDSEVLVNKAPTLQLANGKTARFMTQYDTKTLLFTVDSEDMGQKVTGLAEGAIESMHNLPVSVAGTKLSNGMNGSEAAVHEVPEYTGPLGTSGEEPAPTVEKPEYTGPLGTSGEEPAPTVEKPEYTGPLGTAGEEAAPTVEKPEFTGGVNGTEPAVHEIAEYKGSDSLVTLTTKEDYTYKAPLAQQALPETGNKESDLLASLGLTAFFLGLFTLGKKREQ
T1 sequence (P62575 whole entry): as above

## COc1cc([C@H]2O[C@@H](c3ccc(O)c(OC)c3)[C@@H](C)[C@@H]2C)ccc1O
[1]
  pIC50: 3.48
Streptococcus pneumoniae [2]
  inhibition: Dose-dependent effect
[3]
  inhibition: Dose-dependent effect
Sialidase A [4]
  pIC50: 4.43
Sialidase A [5]
  pKi: 4.66
[6]
  pIC50: 3.56
Streptococcus pneumoniae [7]
  inhibition: Dose-dependent effect

## C=CCc1cc(O)c(OC)c(O)c1
[1]
  pIC50: 4.57
Streptococcus pneumoniae [2]
  inhibition: Dose-dependent effect
[3]
  inhibition: Dose-dependent effect
Sialidase A [4]
  pIC50: 5.70
Sialidase A [5]
  pKi: 5.31
[8]
  pKi: 4.13
[6]
  pIC50: 4.22
Streptococcus pneumoniae [7]
  inhibition: Dose-dependent effect
[9]
  pKi: 4.04

## COc1cc([C@@H](O)[C@@H](C)Oc2c(OC)cc(/C=C/CO)cc2OC)ccc1O
[1]
  pIC50: 4.68
Streptococcus pneumoniae [2]
  inhibition: Dose-dependent effect
[3]
  inhibition: Dose-dependent effect
Sialidase A [4]
  pIC50: 5.80
Sialidase A [5]
  pKi: 5.52
[8]
  pKi: 4.41
[6]
  pIC50: 4.61
Streptococcus pneumoniae [7]
  inhibition: Dose-dependent effect
[9]
  pKi: 4.42

## C=CCc1cc(OC)c(O[C@@H](C)[C@H](O)c2ccc(O)c(OC)c2)c(OC)c1
[1]
  pIC50: 3.64
Streptococcus pneumoniae [2]
  inhibition: Dose-dependent effect
[3]
  inhibition: Dose-dependent effect
Sialidase A [4]
  pIC50: 4.59
Sialidase A [5]
  pKi: 4.82
[6]
  pIC50: 3.99
Streptococcus pneumoniae [7]
  inhibition: Dose-dependent effect

## C/C=C/c1cc(OC)c2c(c1)[C@H](C)[C@@H](c1cc(OC)c3c(c1)OCO3)O2
[1]
  pIC50: 4.04
Streptococcus pneumoniae [2]
  inhibition: Dose-dependent effect
[3]
  inhibition: Dose-dependent effect
Sialidase A [4]
  pIC50: 4.35
Sialidase A [5]
  pKi: 4.32
[6]
  pIC50: 3.50
Streptococcus pneumoniae [7]
  inhibition: Dose-dependent effect

## C=CCc1cc(OC)c(O[C@H](C)[C@H](OC(C)=O)c2ccc(OC)c(OC)c2)c(OC)c1
[1]
  IC50: Not Active
Sialidase A [4]
  pIC50: 3.53
[6]
  IC50: Not Active

## C/C=C/c1cc(OC)c2c(c1)[C@H](C)[C@@H](c1ccc3c(c1)OCO3)O2 [(-)-LICARIN B]
[1]
  pIC50: 4.85
Streptococcus pneumoniae [2]
  inhibition: Dose-dependent effect
[3]
  inhibition: Dose-dependent effect
Sialidase A [4]
  pIC50: 5.82
Sialidase A [5]
  pKi: 5.89
[8]
  pKi: 4.87
[6]
  pIC50: 4.51
Streptococcus pneumoniae [7]
  inhibition: Dose-dependent effect
[9]
  pKi: 4.92

## C/C=C/c1cc(OC)c2c(c1)[C@H](C)[C@@H](c1ccc(O)c(OC)c1)O2 [LICARIN A]
[1]
  pIC50: 4.02
Streptococcus pneumoniae [2]
  inhibition: Dose-dependent effect
[3]
  inhibition: Dose-dependent effect
Sialidase A [4]
  pIC50: 5.10
Sialidase A [5]
  pKi: 5.03
[6]
  pIC50: 3.95
Streptococcus pneumoniae [7]
  inhibition: Dose-dependent effect

## O=C(CCCCCCCCc1ccc(O)cc1)c1c(O)cccc1O [MALABARICONE B]
[1]
  pIC50: 5.24
Streptococcus pneumoniae [2]
  inhibition: Dose-dependent effect
[3]
  inhibition: Dose-dependent effect
Sialidase A [4]
  pIC50: 6.40
[8]
  pKi: 5.25
[6]
  pIC50: 4.84
Streptococcus pneumoniae [7]
  inhibition: Dose-dependent effect
[9]
  pKi: 5.24
Sialidase A [10]
  pKi: 6.30

## O=C(CCCCCCCCc1ccc(O)c(O)c1)c1c(O)cccc1O [MALABARICONE C]
[1]
  pIC50: 5.44
Streptococcus pneumoniae [2]
  inhibition: Dose-dependent effect
[3]
  inhibition: Dose-dependent effect
Sialidase A [4]
  pIC50: 6.52
[8]
  pKi: 5.52
[6]
  pIC50: 5.54
Streptococcus pneumoniae [7]
  inhibition: Dose-dependent effect
[9]
  pKi: 5.68
Sialidase A [10]
  pKi: 7.00

## C=CCc1cc(OC)c(O)c(OC)c1 [METHOXYEUGENOL]
[1]
  pIC50: 4.11
Streptococcus pneumoniae [2]
  inhibition: Dose-dependent effect
[3]
  inhibition: Dose-dependent effect
Sialidase A [4]
  pIC50: 5.16
Sialidase A [5]
  pKi: 5.38
[6]
  pIC50: 4.47
Streptococcus pneumoniae [7]
  inhibition: Dose-dependent effect
[9]
  pKi: 4.52
